Like-named read-outs stand apart in the source and are kept apart here.
How the values were obtained:
[1] = tested on: SKBR-3; assay: Cell viability assay (CCK-8), SKBR-3; format: cell-based, human
Procedure: (§1) Cells were seeded in a 96‐well plate at 1000–4000 cells per well for different cell lines. After overnight incubation, serially diluted samples (100 µL) were added to each well, and the plate was incubated at 37°C for 72 h (payloads) or 108 h (ADCs). After the old medium was replaced with 100 µL fresh medium, 10 µL of the Cell Counting Kit‐8 (CCK‐8) was added to each well, and the plate was incubated at 37°C for 2 h. After gently agitating the plate, the absorbance at 450 nm was recorded using a BioTek Synergy microplate reader. EC50 values were calculated using GraphPad Prism 9.3 software. All assays were performed in triplicate.

[2] = Parallel artificial membrane permeability assay (PAMPA); format: in vitro ADME; settings: for Papp at 4 h, 10 µM: PAMPA
Procedure: PAMPA was performed by WuXi AppTec Co., Ltd. (Wuxi, China). In brief, 150 µL of 10.0 µM donor solutions (5% DMSO) were added to each well of the donor plate, whose PVDF membrane was precoated with 5 µL of 1% lecithin/dodecane mixture. Then, 300 µL of PBS was added to each well of the PTFE acceptor plate. After incubation for 4 h at room temperature with shaking at 300 rpm, the plate was removed from the incubator, and the solution was transferred from each acceptor and donor well and mixed with acetonitrile (containing internal standard) as samples. Acceptor samples and donor samples were all analyzed by LC‐MS/MS to determine permeability rates (Pe). All assays were performed in duplicates.

[3] = tested on: MDA-MB-231; assay: Cell viability assay (CCK-8), MDA-MB-231; format: cell-based, human; settings: read-out: IC50 MDA-MB-231
Procedure: as §1

[4] = tested on: NCI-N87; assay: Cell viability assay (CCK-8), NCI-N87; format: cell-based; settings: Homo sapiens, NCI-N87, 72 h, read-out: IC50 NCI-N87
Procedure: as §1, with “After overnight incubation, serially diluted samples (100 µL) were added to each well, and the plate was incubated at 37°C for 72 h (payloads) or 108 h (ADCs).” left out

[5] = tested on: JIMT-1; assay: Cell viability assay (CCK-8), JIMT-1; format: cell-based; settings: Homo sapiens, JIMT-1, 72 h, read-out: IC50 JIMT-1
Procedure: as §1

[6] = tested on: MDA-MB-453; assay: Cell viability assay (CCK-8), MDA-MB-453; format: cell-based; settings: Homo sapiens, MDA-MB-453, 72 h, read-out: IC50 MDA-MB-453
Procedure: as §1, with “After overnight incubation, serially diluted samples (100 µL) were added to each well, and the plate was incubated at 37°C for 72 h (payloads) or 108 h (ADCs).” left out

[7] = tested on: MDA-MB-361; assay: Cell viability assay (CCK-8), MDA-MB-361; format: cell-based; settings: Homo sapiens, MDA-MB-361, 72 h, read-out: IC50 MDA-MB-361
Procedure: as §1

[8] = target: T1, Topo I (Homo sapiens, UniProt P11387); assay: Topo I-mediated DNA cleavage assay; format: biochemical; settings: 10 µM
T1 sequence (P11387 1-765): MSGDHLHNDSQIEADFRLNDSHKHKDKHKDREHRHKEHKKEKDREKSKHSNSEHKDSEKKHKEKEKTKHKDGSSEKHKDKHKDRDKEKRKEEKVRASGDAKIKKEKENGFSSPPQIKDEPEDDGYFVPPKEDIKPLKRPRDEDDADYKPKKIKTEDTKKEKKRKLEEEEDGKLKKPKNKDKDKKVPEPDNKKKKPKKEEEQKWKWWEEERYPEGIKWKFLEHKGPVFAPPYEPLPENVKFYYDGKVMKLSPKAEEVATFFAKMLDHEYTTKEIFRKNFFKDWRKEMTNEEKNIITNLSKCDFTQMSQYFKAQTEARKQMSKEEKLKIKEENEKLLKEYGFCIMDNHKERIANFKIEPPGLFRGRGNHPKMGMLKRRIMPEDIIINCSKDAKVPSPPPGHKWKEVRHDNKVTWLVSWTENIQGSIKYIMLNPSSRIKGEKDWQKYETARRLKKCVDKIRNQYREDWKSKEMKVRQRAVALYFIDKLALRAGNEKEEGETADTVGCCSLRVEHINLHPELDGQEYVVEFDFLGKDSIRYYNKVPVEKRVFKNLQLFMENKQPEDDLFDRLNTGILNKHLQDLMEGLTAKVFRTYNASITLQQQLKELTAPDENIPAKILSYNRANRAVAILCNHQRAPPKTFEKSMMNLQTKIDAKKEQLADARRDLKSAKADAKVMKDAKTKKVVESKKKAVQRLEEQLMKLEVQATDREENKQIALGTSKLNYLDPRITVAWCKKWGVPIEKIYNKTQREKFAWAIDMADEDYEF
Procedure: DNA cleavage assay was performed by Huawei Pharmaceutical Co., Ltd. (Jinan, China) with reference to previous literature about camptothecin derivatives.^[ [63] ^]

[9] = tested on: NCI-N87 and MDA-MB-231/GFP co-culture system; assay: In vitro co-culture model for bystander-killing evaluation; format: cell-based, human; settings: GFP fluorescence intensity and fluorescence microscopy
Procedure: After overnight incubation, a single concentration or a serially diluted solution of each ADC was added. Cell viability was evaluated after 120 h using the cell counting kit‐8 assay. The mixed cell viability was determined by CCK‐8 assay. […] In the supernatant proliferation inhibition experiment, gradient concentrations of ADC were incubated with NCI‐N87 (4000 cells per well) for 48 h.

[10] = tested on: NCI-N87 cells and MDA-MB-231/teLuc cells (2: 5 ratio) xenograft; assay: Xenograft mouse model of HER2-heterogeneous cancer (co-inoculation) with teLuc imaging; format: in vivo, BALB/c nude mice; settings: single intravenous dose of 2 or 5 mg kg^-1
Procedure: On day 7, the tumors reached an average volume of ≈180 mm^3, mice were randomized to each group, and each ADC was given to the mice at a single dose of 5 or 2 mg kg^−1 through injection via the tail vein, with a volume of 10 mL kg^−1. The size of the tumor and body weight were monitored three times a week. The tumor volume was estimated on the mathematical formula, which is 1/2 × length × width^2.
Teal luciferase activity of each mouse in the HER2‐heterogeneous xenograft model was determined by an in vivo Imaging System (IVIS) Spectrum CT (PerkinElmer, USA) once a week (Day 7, 14, 21, 35) 10 min after intraperitoneal injection of pre‐dissolved DTZ (MeisenCTCC). The amount of luminescence was analyzed using analysis software (Living Image Software version 4.3.1; PerkinElmer) as average radiance (p per s per cm^2 per sr).

[11] = tested on: breast tumors with low HER2 expression; design: method as in ref 25, 26 = [25]; 25 S. Modi , W. Jacot , T. Yamashita , J. Sohn , M. Vidal , E. Tokunaga , J. Tsurutani , N. T. Ueno , A. Prat , Y. S. Chae , K. S. Lee , N. Niikura , Y. H. Park , B. Xu , X. Wang , M. Gil‐Gil , W. Li || [26]; 26 Cancer Discov. 2022 , 12 , 1828 .; settings: breast tumors with low HER2 expression ref 25, 26; cited from earlier work
[12] = tested on: HER2-low-expressing urothelial carcinoma; design: method as in ref 29 = [29]; 29 H. Xu , X. Sheng , L. Zhou , X. Yan , S. Li , Z. Chi , C. Cui , L. Si , B. Tang , L. Mao , B. Lian , X. Wang , X. Bai , J. Li , J. Guo , JCO 2022 , 40 , 4519 .; settings: patients with HER2(IHC 1+), 5/13, phase II ref 29; cited from earlier work
[13] = payloads, 3 days (72 h), HER2++, read-out: IC50 SKBR-3
[14] = 10.0 µM donor solution, 4 h, room temperature
[15] = 10.0 µM donor solution, 4 h, room temperature, read-out: Peff (PAMPA permeability)
[16] = Homo sapiens, SK-BR-3, 72 h, read-out: IC50 SKBR-3
[17] = Homo sapiens, SK-BR-3, read-out: pIC50 (converted)
[18] = Homo sapiens, SK-BR-3, Normalized from IC50 (μM) against SKBR-3, read-out: pIC50 (converted)
[19] = Homo sapiens, SK-BR-3, payloads, 3 days (72 h), HER2++, read-out: IC50 SKBR-3
[20] = Homo sapiens, MDA-MB-231, payloads, 3 days (72 h), HER2-

CC[C@@]1(O)C(=O)OCc2c1cc1n(c2=O)Cc2c-1nc1cc(F)c(C)c3c1c2[C@@H](NC(=O)C(O)c1ccccc1)CC3 (single isomer, unassigned) [Ed3] gave an IC50 [1, 13] of 0.109 ± 0.0122 µM.

For CC[C@@]1(O)C(=O)OCc2c1cc1n(c2=O)Cc2c-1nc1cc(F)c(C)c3c1c2[C@@H](NC(=O)C(O)c1ccccc1)CC3 (single isomer, unassigned) [Ed4], the IC50 [1, 13] was 0.0495 ± 0.00832 µM, the “Peff (PAMPA permeability)” value [2, 14] was 3.43 10^-6 cm/s and the IC50 ([3]; payloads, 3 days (72 h), HER2-) was 4.41 nM.

NC(=O)N1c2ccccc2C=Cc2ccccc21 [Carbamazepine, reference compound] gave a Papp at 4 h, 10 µM [2, 15] of over 10 ×10⁻⁶ cm/s.

Molecule CCC1(O)C(=O)OCc2c1cc1n(c2=O)Cc2c-1nc1cc(F)c(C)c3c1c2C(NC(=O)CO)CC3 (stereo not shown) [DXd, reference compound] has an IC50 [1, 16] of 0.0739 ± 0.0171 µM, an IC50 [1, 17] of 0.074 µM and an IC50 [4] of 9.03 nM. The Papp at 4 h, 10 µM [2, 15] was 3.12 ×10⁻⁶ cm/s, the IC50 [5] was 577 nM and the IC50 ([3]; Homo sapiens, MDA-MB-231, 72 h) was 25.8 nM. The IC50 [6] was 262 nM and the IC50 [7] was 16.4 nM.

For CC[C@@]1(O)C(=O)OCc2c1cc1n(c2=O)Cc2c-1nc1cc(F)c(C)c3c1c2[C@@H](NC(=O)[C@@H](O)C(C)C)CC3 [Ed1], the IC50 [1, 16] was 0.129 µM and the IC50 [1, 17] was 0.129 µM.

In the case of CC[C@@]1(O)C(=O)OCc2c1cc1n(c2=O)Cc2c-1nc1cc(F)c(C)c3c1c2[C@@H](NC(=O)[C@H](O)C(C)C)CC3 [Ed2], the IC50 [1, 13] is reported as 0.0421 µM, the “Peff (PAMPA permeability)” value [2, 14] is reported as 2.67 10^-6 cm/s and the IC50 ([3]; payloads, 3 days (72 h), HER2-) is reported as 8.32 nM.

Molecule CC[C@@]1(O)C(=O)OCc2c1cc1n(c2=O)Cc2c-1nc1cc(F)c(C)c3c1c2[C@@H](NC(=O)C[C@@H](O)c1ccccc1)CC3 [Ed5] has an IC50 [1, 13] of 0.177 ± 0.0158 µM.

In the case of CC[C@@]1(O)C(=O)OCc2c1cc1n(c2=O)Cc2c-1nc1cc(F)c(C)c3c1c2[C@@H](NC(=O)[C@H](O)C(F)(F)F)CC3 [Ed6], the IC50 [1, 18] is reported as 0.0604 µM, the IC50 [1, 19] is reported as 0.0604 µM and the IC50 [3, 20] is reported as 9.46 nM.

In the case of CC[C@@]1(O)C(=O)OCc2c1cc1n(c2=O)Cc2c-1nc1cc(F)c(C)c3c1c2[C@@H](NC(=O)C(O)C(F)(F)F)CC3 (stereo partly shown) [Ed7], the IC50 [1, 13] is reported as 0.0415 µM, the “Peff (PAMPA permeability)” value [2, 14] is reported as 4.96 10^-6 cm/s and the IC50 ([3]; payloads, 3 days (72 h), HER2-) is reported as 6.11 nM.

CC[C@@]1(O)C(=O)OCc2c1cc1n(c2=O)Cc2c-1nc1cc(F)c(C)c3c1c2[C@@H](NC(=O)C(C)(C)O)CC3 [Ed8] gave an IC50 [1, 18] of 0.0144 µM, an IC50 [1, 19] of 0.0144 ± 0.00379 µM and a Papp at 4 h, 10 µM [2] of 5.74 ×10⁻⁶ cm/s. The IC50 [3, 20] was 4.21 nM.

CC[C@@]1(O)C(=O)OCc2c1cc1n(c2=O)Cc2c-1nc1cc(F)c(C)c3c1c2[C@@H](NC(=O)C1(O)CCC1)CC3 [Ed9] showed an IC50 [1, 18] of 0.0132 µM, an IC50 [1, 19] of 0.0131 ± 0.00424 µM and an IC50 ([4]; payloads, 3 days, HER2++) of 1.17 nM. The Papp at 4 h, 10 µM [2] was 5.66 ×10⁻⁶ cm/s, the IC50 ([5]; payloads, 3 days, HER2+) was 193 nM and the “Topo I inhibitory activity” value [8] was “significantly lower than that of DXd”. It also gave an IC50 [3, 20] of 2.69 nM, an IC50 ([6]; payloads, 3 days, HER2+) of 120 nM and an IC50 ([7]; payloads, 3 days, HER2+) of 1.69 nM.

In the case of CC[C@@]1(O)C(=O)OCc2c1cc1n(c2=O)Cc2c-1nc1cc(F)c(C)c3c1c2[C@@H](NC(=O)C1(O)CCCC1)CC3 [Ed10], the IC50 [1, 16] is reported as 0.0178 ± 0.00369 µM, the IC50 [1, 17] is reported as 0.0178 µM and the “Topo I inhibitory activity” value [8] is reported as “lose their inhibitory activity”. For the same molecule, the IC50 ([3]; Homo sapiens, MDA-MB-231, 72 h) was 5.17 nM.

For CC[C@@]1(O)C(=O)OCc2c1cc1n(c2=O)Cc2c-1nc1cc(F)c(C)c3c1c2[C@@H](NC(=O)C1(O)CCCCC1)CC3 [Ed11], the IC50 [1, 13] was 0.0177 ± 0.00534 µM, the “Peff (PAMPA permeability)” value [2, 14] was 6.12 10^-6 cm/s and the IC50 ([3]; payloads, 3 days (72 h), HER2-) was 5.43 nM.

In the case of T-DM1, the “killing of both NCI-N87 and MDA-MB-231/GFP cells in co-culture” value [9] is given as “did not”, the tumor volume change [10] is given as “less effective” and the effect [11] is given as “limited effect”.

B1: Disitamab Vedotin (conjugate, chains of the INN, looked up)
VH: EVQLVQSGAEVKKPGATVKISCKVSGYTFTDYYIHWVQQAPGKGLEWMGRVNPDHGDSYYNQKFKDKATITADKSTDTAYMELSSLRSEDTAVYFCARNYLFDHWGQGTLVTVSS
VL: DIQMTQSPSSVSASVGDRVTITCKASQDVGTAVAWYQQKPGKAPKLLIYWASIRHTGVPSRFSGSGSGTDFTLTISSLQPEDFATYYCHQFATYTFGGGTKVEIK
modifications: vedotin (MMAE) payload
In the case of B1, the ORR [12] is given as 38%.

— publication PMC10987111, “Rational Identification of Novel Antibody‐Drug Conjugate with High Bystander Killing Effect against Heterogeneous Tumors” (Advanced Science, 2024)
